Results reported in patent publication US9394555B2, “Compositions comprising a polypeptide having cellulolytic enhancing activity and a dioxy compound and uses thereof” (priority 2010, dated 2016).
Where two headings read alike, the source gives them in different places.

Experiments:
[1] = target: T1, T. aurantiacus GH61A polypeptide (Thermoascus aurantiacus, UniProt G3XAP7, N13Y); type: biochemical; settings: for hydrolysis of AVICEL in the presence of both T. aurantiacus GH61A polypeptide and dioxy compound relative to inhibition by the dioxy compound / dioxy compound effect(no GH61): dioxy compound 1 mM; for hydrolysis of AVICEL in the presence of both T. aurantiacus GH61A polypeptide and dioxy compound relative to inhibition by the dioxy compound: GH61A polypeptide 2 mg per g cellulose, cellulose 29.5 mg per ml; for dioxy compound effect(no GH61): AVICEL 29.5 mg cellulose per ml; for dioxy compound effect(no GH61) (Equation 3), ratio of percent conversion with/without dioxy compound: day 1 to day 8
T1 sequence (G3XAP7 whole entry N13Y): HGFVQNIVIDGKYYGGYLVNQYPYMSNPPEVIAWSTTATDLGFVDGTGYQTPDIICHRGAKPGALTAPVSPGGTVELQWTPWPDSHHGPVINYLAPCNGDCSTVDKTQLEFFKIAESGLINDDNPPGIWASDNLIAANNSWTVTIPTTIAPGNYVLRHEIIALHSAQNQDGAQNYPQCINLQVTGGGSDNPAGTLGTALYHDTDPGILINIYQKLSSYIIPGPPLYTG
Method: The cellulase preparation is designated herein as “Trichoderma reesei cellulase composition” unless specified otherwise.
Later experiments were mixed thoroughly prior to incubation in an IsoTemp incubator (Fisher Scientific, Hampton, N.H., USA) and prior to sampling for analysis, but were not continuously mixed.
Data were processed using MICROSOFT EXCEL™ software.

[2] = target: T1, T. aurantiacus GH61A polypeptide; test: Microcrystalline cellulose conversion assay II (Examples 10, 11), T. reesei CEL7A cellobiohydrolase I + A. oryzae CEL3A beta-glucosidase; type: biochemical; settings: dioxy compound 0.1% w/w alone, no enzymes; 72 hours, 50° C.
Method: A 5% microcrystalline cellulose slurry was prepared by addition of 2.5 g of AVICEL® PH101 to a graduated 50 ml screw-cap conical tube followed by approximately 40 ml of deionized water. Each conical tube was then mixed thoroughly by shaking/vortexing, and adjusted to 50 ml total with deionized water and mixed again. For samples containing dioxy compounds, a similar slurry was prepared by the addition of 100 mg of solid dioxy compound and 2.5 g of AVICEL® PH101 to a graduated 50 ml screw-cap conical tube followed by approximately 40 ml of deionized water. Each conical tube was then mixed thoroughly by shaking/vortexing, and adjusted to 50 ml total with deionized water and mixed again.
The dioxy compounds assayed include caffeic acid, dichlorophenolindophenol (DCPIP), ethyl gallate, gallic acid, 3,4-dihydroxybenzoic acid, pyrocatechol, pyrogallol, sinapinic acid (3,5 dimethoxy-4-hydroxy cinnamic acid), and tannic acid.
In all cases, the contents of the tube (5% microcrystalline cellulose slurry with or without 0.2% dioxy compound) were then quickly transferred to a 100 ml beaker and stirred rapidly with a magnetic stirrer. Five hundred μl aliquots of the 5% AVICEL® slurry were pipetted into wells of a 2.0 ml 96-deepwell plate (Axygen, Union City, Calif.) using a 1000 μl micropipette with a wide aperture tip (end of tip cut off about 2 mm from the base). One hundred μl of deionized water and 300 μl of 3.33 mM MnSO4-500 mM sodium acetate pH 5 were then added to each well. Enzyme mixtures were prepared and then added simultaneously to all wells in a volume of 100 μl, for a total of 1 ml in each reaction. […] All experiments reported were performed in triplicate.
Primary analysis of the hydrolysis reactions was performed using an AGILENT® 1100 HPLC with CHEMSTATION® software equipped with an AMINEX™ HPX-87H column. After approximately 4 days, the deep-well plate was removed from the incubator and chilled overnight to 4° C. The plate was then mixed well by inversion and briefly centrifuged at 52×g in a SORVALL® RT7 centrifuge for 10 seconds. Samples were then mixed by pipetting, and 200 μl from each well were transferred to a MULTISCREEN® HV centrifuge filter plate assembly. The centrifuge filter plate assembly was centrifuged at 2000 rpm in a SORVALL® RT7 centrifuge for 20 minutes. […] Sugars were detected using a refractive index detector with quantification by integration compared to purified sugar standards.
All HPLC data processing was performed using MICROSOFT EXCEL™ software. […] In this assay only glucose was measured since beta-glucosidase was at high levels in all samples but the controls. The degree of cellulose conversion was calculated using Equation 1. Triplicate data points were averaged and standard deviation was calculated.
The microcrystalline cellulose hydrolysis assay was performed as described in Example 10.
Data were collected and analyzed, as described in Example 10, after 72 hours of incubation at 50° C.

[3] = system: T. aurantiacus CEL5A endoglucanase II and P. brasilianum CEL3A beta-glucosidase; test: Microcrystalline cellulose conversion assay I (Examples 8, 9) without GH61 polypeptide; type: biochemical, Thermoascus aurantiacus; Penicillium brasilianum; settings: dioxy compound 0.3% w/w + endoglucanase II + beta-glucosidase (5 mg/g each), no GH61; 96 hours, at either 50° C. or 60° C.
Method: (§1) A 5% microcrystalline cellulose slurry was prepared by addition of 2.5 g of AVICEL®PH101 (Sigma-Aldrich, St. Louis, Mo., USA) to a graduated 50 ml screw-cap conical tube followed by 15 ml of 1 M sodium acetate pH 5 and 1 ml of 100 mM MnSO4 and approximately 20 ml of deionizer water. Each conical tube was then mixed thoroughly by shaking/vortexing, and adjusted to 50 ml total with deionized water and mixed again. Contents of the tube were then quickly transferred to a 100 ml beaker and stirred rapidly with a magnetic stirrer. Five hundred μl aliquots of the 5% AVICEL® slurry were pipetted into wells of a 2.0 ml 96-deepwell plate (Axygen, Union City, Calif., USA) using a 1000 μl micropipette with a wide aperture tip (end of tip cut off about 2 mm from the base). Three hundred μl of either deionized water or a 1% dioxy compound solution (dissolved in deionized water) was added to each well.
(§2) The dioxy compounds assayed include caffeic acid (Sigma-Aldrich, St. Louis, Mo., USA), dichlorophenolindophenol (DCPIP; Sigma-Aldrich, St. Louis, Mo., USA), ethyl gallate (Sigma-Aldrich, St. Louis, Mo., USA), gallic acid (Sigma-Aldrich, St. Louis, Mo., USA), 3,4-dihydroxybenzoic acid (Sigma-Aldrich, St. Louis, Mo., USA), pyrocatechol (Sigma-Aldrich, St. Louis, Mo., USA), pyrogallol (Sigma-Aldrich, St. Louis, Mo., USA), sinapinic acid (3,5 dimethoxy-4-hydroxy cinnamic acid; Apin Chemicals LTD, Abingdon, UK), and tannic acid (Sigma-Aldrich, St. Louis, Mo., USA).
(§3) Enzyme mixtures were prepared and then added simultaneously to all wells in a volume of 200 μl, for a total of 1 ml in each reaction. […] All experiments reported were performed in triplicate.
(§4) After approximately 4 days, the deep-well plate was removed from the incubator and chilled overnight to 4° C. The plate was then mixed well by inversion and briefly centrifuged at 52×g in a SORVALL® RT7 centrifuge (Thermo Fisher Scientific, Waltham, Mass., USA) for 10 seconds. Samples were then mixed by pipetting, and 200 μl from each well were transferred to a MULTISCREEN® HV centrifuge filter plate assembly (Millipore, Bedford, Mass., USA). The centrifuge filter plate assembly was centrifuged at 2000 rpm in a SORVALL® RT7 centrifuge for 20 minutes. […] Sugars were detected using a refractive index detector (Agilent Technologies, Inc., Santa Clara, Calif., USA) with quantification by integration compared to purified sugar standards.
(§5) In this assay only glucose was measured since beta-glucosidase was at high levels in all samples but the controls.
(§6) A limit digest was performed to determine the total concentration accessible glucose equivalents using 100 mg of T. reesei cellulase (CELLIC™ CTec, Novozymes A/S, Bagsvaerd, Denmark) per gram cellulose, Triplicate data points were averaged and standard deviation was calculated.

[4] = system: T. terrestris GH61E polypeptide; test: Microcrystalline cellulose conversion assay I (Examples 8, 9) with T. terrestris GH61E polypeptide; type: biochemical, Thielavia terrestris; settings: 96 hours
Method: as §1, §2, §3, §4, §5, §6

[5] = AVICEL 14 mg cellulose per ml, dioxy compound 5 mM, T. aurantiacus GH61A polypeptide 0.4 mg per g cellulose, 1, 3, and 7 days
[6] = AVICEL, T. reesei cellulase composition, dioxy compound 5 mM, T. aurantiacus GH61A polypeptide present, day 1
[7] = AVICEL, T. reesei cellulase composition, dioxy compound 5 mM, T. aurantiacus GH61A polypeptide present, day 5
[8] = AVICEL, T. reesei cellulase composition, dioxy compound 5 mM, T. aurantiacus GH61A polypeptide present, day 8
[9] = AVICEL, T. reesei cellulase composition, dioxy compound 5 mM
[10] = AVICEL, T. reesei cellulase composition, dioxy compound 5 mM, day 5 (Example 24)
[11] = dioxy compound 0.3% w/w + T. terrestris GH61E polypeptide (10 mg/g) + endoglucanase II + beta-glucosidase (5 mg/g each), 50° C.
[12] = dioxy compound 0.3% w/w + T. terrestris GH61E polypeptide (10 mg/g) + endoglucanase II + beta-glucosidase (5 mg/g each), 60° C.

In the case of `OCCCO` [1,3-propanediol], the “dioxy compound effect(+GH61) (Equation 4)” value (from here on “dioxy compound effect(+GH61)”) [1, 5] is reported as “greater than 1”, the “GH61 effect (Equation 5)” value ([1]; AVICEL 14 mg cellulose per ml, dioxy compound 5 mM, T. aurantiacus GH61A polypeptide 0.4 mg per g cellulose, 1, 3, and 7 days, increasing as hydrolysis progressed) is reported as “greater than 1” and the “dioxy compound effect(no GH61) (Equation 3)” value ([1]; AVICEL 14 mg cellulose per ml, dioxy compound 5 mM, 1, 3, and 7 days, especially early stages) is reported as “greater than 1”.

For `CC(O)CC(C)O` (centres unmarked) [2,4-pentanediol], the “dioxy compound effect(+GH61)” value [1, 5] was “greater than 1”, the “GH61 effect (Equation 5)” value ([1]; AVICEL 14 mg cellulose per ml, dioxy compound 5 mM, T. aurantiacus GH61A polypeptide 0.4 mg per g cellulose, later hydrolysis stages (day 7)) was “greater than 1” and the “dioxy compound effect(no GH61) (Equation 3)” value ([1]; AVICEL 14 mg cellulose per ml, dioxy compound 5 mM, day 1) was “greater than 1”.

In the case of `COc1cccc(OC)c1O` [2,6-dimethoxyphenol], the “hydrolysis of AVICEL in the presence of both T. aurantiacus GH61A polypeptide and dioxy compound relative to inhibition by the dioxy compound” value [1] is reported as “overall enhancement of cellulolysis”.

With `O=C(O)c1ccc(O)c(O)c1` [3,4-dihydroxybenzoic acid] the “conversion (hydrolysis) of the microcrystalline cellulose” value (“conversion (hydrolysis)” for short) [2] was “no significant hydrolysis”.

For `CCOCC(O)CO` (centres unmarked) [3-ethoxy-1,2-propanediol, 3-ethyoxy-1,2-propanediol], the “dioxy compound effect(no GH61)” value ([1]; 3 days) was 1.11±0.0167 and the “dioxy compound effect(no GH61)” value ([1]; 7 days) was 1.20±0.0210.

In the case of `Oc1ccc(Cl)cc1O` [4-chloro-1,2-benzenediol], the “dioxy compound effect(+GH61)” value [1, 6] is reported as “increased”, the “dioxy compound effect(+GH61)” value [1, 7] is reported as “less than 1” and the “dioxy compound effect(+GH61)” value [1, 8] is reported as “less than 1”. The “dioxy compound effect(no GH61) (Equation 3), ratio of percent conversion with/without dioxy compound” value [1, 9] was “less than 1”, the “GH61 effect (Equation 5), ratio of percent conversion with/without GH61 polypeptide” value ([1]; AVICEL, T. reesei cellulase composition, dioxy compound 5 mM, day 1 (Example 24)) was “greater than 1” and the “GH61 effect (Equation 5)” value [1, 10] was “greater than 1”.

With `O=[N+]([O-])c1ccc(O)c(O)c1` [4-nitro-1,2-benzenediol] the “dioxy compound effect(+GH61)” value [1, 6] was “less than 1”, the “dioxy compound effect(+GH61)” value [1, 7] was “less than 1” and the “dioxy compound effect(+GH61)” value [1, 8] was “less than 1”. For the same molecule, the “dioxy compound effect(no GH61) (Equation 3), ratio of percent conversion with/without dioxy compound” value [1, 9] was “less than 1”, the “GH61 effect (Equation 5)” value [1, 10] was “greater than 1” and the “GH61 effect (Equation 5)” value ([1]; AVICEL, T. reesei cellulase composition, dioxy compound 5 mM, day 8 (Example 24)) was “greater than 1”.

`O=C1C=CC(=Nc2cc(Cl)c(O)c(Cl)c2)C=C1` [DCPIP, dichlorophenolindophenol] was tested, and the “conversion (hydrolysis)” value [2] was “no significant hydrolysis”.

With `O=C(O)/C=C/c1ccc(O)c(O)c1` [caffeic acid] the “change in conversion of microcrystalline cellulose compared to the enzymes in the absence of the dioxy compound” value (“change in conversion” below) [3] was “no significant change”, the “conversion (hydrolysis)” value [2] was “no significant hydrolysis” and the “conversion of microcrystalline cellulose” value [4, 11] was 4.4±0.1%. The “conversion of microcrystalline cellulose” value [4, 12] was 7.0±0.1%.

With `COC(=O)c1ccc(O)cc1` [methyl-4-hydroxybenzoate] the “hydrolysis of AVICEL in the presence of both T. aurantiacus GH61A polypeptide and dioxy compound relative to inhibition by the dioxy compound” value [1] was “overall enhancement of cellulolysis”.

`COc1cc(C=CC(=O)O)cc(OC)c1O` [sinapinic acid, 3,5 dimethoxy-4-hydroxy cinnamic acid] was tested, and the “change in conversion” value [3] was “no significant change”, the “conversion of microcrystalline cellulose” value [4, 11] was 6.3±0.1% and the “conversion of microcrystalline cellulose” value [4, 12] was 9.2±0.1%.

With `O=C(OC[C@H]1O[C@@H](OC(=O)c2cc(O)c(O)c(OC(=O)c3cc(O)c(O)c(O)c3)c2)[C@H](OC(=O)c2cc(O)c(O)c(OC(=O)c3cc(O)c(O)c(O)c3)c2)[C@@H](OC(=O)c2cc(O)c(O)c(OC(=O)c3cc(O)c(O)c(O)c3)c2)[C@@H]1OC(=O)c1cc(O)c(O)c(OC(=O)c2cc(O)c(O)c(O)c2)c1)c1cc(O)c(O)c(OC(=O)c2cc(O)c(O)c(O)c2)c1` [tannic acid] the “change in conversion” value [3] was “no significant change”, the “conversion of microcrystalline cellulose” value [4, 11] was 5.7±0.1% and the “conversion of microcrystalline cellulose” value [4, 12] was 6.0±0.2%.

`O=C(O)C(O)C(O)C(=O)O` (centres unmarked) [tartrate, tartaric acid] was tested, and the “dioxy compound effect(no GH61)” value ([1]; 3 days) was 0.984±0.00843 and the “dioxy compound effect(no GH61)” value ([1]; 7 days) was 1.02±0.0573.

B1: T. terrestris GH61E polypeptide: GH61E polypeptide having cellulolytic enhancing activity (SEQ ID NO: 8), recombinantly produced in Aspergillus oryzae JaL250 (protein, listed as Thielavia terrestris)
chain: MLANGAIVFLAAALGVSGHYTWPRVNDGADWQQVRKADNWQDNGYVGDVTSPQIRCFQATPSPAPSVLNTTAGSTVTYWANPDVYHPGPVQFYMARVPDGEDINSWNGDGAVWFKVYEDHPTFGAQLTWPSTGKSSFAVPIPPCIKSGYYLLRAEQIGLHVAQSVGGAQFYISCAQLSVTGGGSTEPPNKVAFPGAYSATDPGILINIYYPVPTSYQNPGPAVFSC
With B1 the “conversion of microcrystalline cellulose” value ([4]; T. terrestris GH61E polypeptide (10 mg per g cellulose) + endoglucanase II + beta-glucosidase (5 mg/g each), no dioxy compound, 50° C.) was 2.8±0.1% and the “conversion of microcrystalline cellulose” value ([4]; T. terrestris GH61E polypeptide (10 mg per g cellulose) + endoglucanase II + beta-glucosidase (5 mg/g each), no dioxy compound, 60° C.) was 3.1±0.1%.
